{"source": "paper PMC4178172", "about": "“Molecular Determinants of Agonist Selectivity in Glutamate-Gated Chloride Channels Which Likely Explain the Agonist Selectivity of the Vertebrate Glycine and GABAA-ρ Receptors” (PLoS ONE, 2014)", "key": {"GluClAc2": {"biological_target": "T1, GluClAc2 (Aplysia californica, UniProt C7DLK0, Y161A)", "T1 construct": "homomeric receptor expressed in CHO-K1 cells", "T1 sequence (C7DLK0 32-429 Y161A)": "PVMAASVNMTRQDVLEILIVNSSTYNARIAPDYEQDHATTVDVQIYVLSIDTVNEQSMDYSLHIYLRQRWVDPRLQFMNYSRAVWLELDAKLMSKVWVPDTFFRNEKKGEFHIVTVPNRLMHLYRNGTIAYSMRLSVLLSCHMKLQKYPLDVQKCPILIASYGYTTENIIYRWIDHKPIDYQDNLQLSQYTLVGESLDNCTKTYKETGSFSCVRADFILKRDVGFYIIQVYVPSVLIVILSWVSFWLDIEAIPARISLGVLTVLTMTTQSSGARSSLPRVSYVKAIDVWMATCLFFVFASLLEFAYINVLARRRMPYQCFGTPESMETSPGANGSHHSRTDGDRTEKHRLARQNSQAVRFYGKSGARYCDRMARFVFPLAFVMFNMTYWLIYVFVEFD", "experiment": "whole-cell patch clamp, […] glutamate", "type": "cell-based"}, "GluClα2b": {"biological_target": "T2, GluClα2b (Caenorhabditis elegans, UniProt O17548, R111L)", "T2 construct": "gene avr-15; homomeric receptor expressed in CHO-K1 cells", "T2 sequence (O17548 21-478 R111L)": "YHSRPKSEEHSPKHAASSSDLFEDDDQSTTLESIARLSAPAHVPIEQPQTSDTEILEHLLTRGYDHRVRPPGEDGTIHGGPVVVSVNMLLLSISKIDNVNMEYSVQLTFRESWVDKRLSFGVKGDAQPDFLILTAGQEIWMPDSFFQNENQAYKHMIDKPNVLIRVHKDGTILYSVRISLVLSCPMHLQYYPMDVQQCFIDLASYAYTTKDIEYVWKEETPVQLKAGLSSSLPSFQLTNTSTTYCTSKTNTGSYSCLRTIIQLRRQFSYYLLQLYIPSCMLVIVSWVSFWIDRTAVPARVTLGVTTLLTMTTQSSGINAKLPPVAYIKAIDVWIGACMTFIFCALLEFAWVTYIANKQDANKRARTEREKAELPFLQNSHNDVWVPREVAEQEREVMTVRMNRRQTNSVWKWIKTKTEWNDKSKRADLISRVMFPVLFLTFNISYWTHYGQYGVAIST", "experiment": "whole-cell patch clamp, […] glutamate", "type": "cell-based"}}, "data": [{"smiles": "N[C@@H](CCC(=O)O)C(=O)O", "note": "[glutamate]", "values": [{"measurement": "whole-cell patch clamp, 1 mM glutamate", "setting": "GluClAc2", "value": "its mutation to an alanine failed to cause any noticeable change in the response to glutamate"}, {"measurement": "whole-cell patch clamp, 1-100 mM glutamate", "setting": "GluClα2b", "value": "this mutation did not impede a robust response to glutamate at higher concentrations"}]}]}
